This is an account of results in ChEMBL document CHEMBL1142967, “Bis-cycloSal-d4T-monophosphates: drugs that deliver two molecules of bioactive nucleotides” (J Med Chem, 2007).

A value given as a limit tells only on which side of the number the result lay.

For data set [1], the system named is Human immunodeficiency virus 2. Kind of data set: Antiviral activity against H1V2 in CEM/0 cells. The format is functional, organism-based.
Data set [2] concerns the target Cholinesterase (Homo sapiens, UniProt P06276). Kind of data set: Inhibition of human serum BChE.
The subject of data set [3] is Human immunodeficiency virus 2. Kind of data set: Antiviral activity against H1V2 in TK-deficient CEM cells. The format is functional, organism-based, CCRF-CEM.
A short description of data set [4]: Hydrolytic stability in 25 mM phosphate buffer at pH 7.3, 37 degC. The format is physicochemical. As to conditions: for t1/2: buffer; for half-life: phosphate buffer.
Data set [5] is described as follows: Cytotoxicity against CEM/0 cells. In kind it is cell-based, CCRF-CEM. Conditions: human.
Data set [6] has as its system Human immunodeficiency virus 1. The data set is described as follows: Antiviral activity against HIV1 in CEM/0 cells. In kind it is functional, organism-based.
Setting [7] is: Human immunodeficiency virus 2, CCRF-CEM.
The mark [8] stands for this setting: Human immunodeficiency virus 1, CCRF-CEM.

Chain of Cholinesterase (P06276 whole entry): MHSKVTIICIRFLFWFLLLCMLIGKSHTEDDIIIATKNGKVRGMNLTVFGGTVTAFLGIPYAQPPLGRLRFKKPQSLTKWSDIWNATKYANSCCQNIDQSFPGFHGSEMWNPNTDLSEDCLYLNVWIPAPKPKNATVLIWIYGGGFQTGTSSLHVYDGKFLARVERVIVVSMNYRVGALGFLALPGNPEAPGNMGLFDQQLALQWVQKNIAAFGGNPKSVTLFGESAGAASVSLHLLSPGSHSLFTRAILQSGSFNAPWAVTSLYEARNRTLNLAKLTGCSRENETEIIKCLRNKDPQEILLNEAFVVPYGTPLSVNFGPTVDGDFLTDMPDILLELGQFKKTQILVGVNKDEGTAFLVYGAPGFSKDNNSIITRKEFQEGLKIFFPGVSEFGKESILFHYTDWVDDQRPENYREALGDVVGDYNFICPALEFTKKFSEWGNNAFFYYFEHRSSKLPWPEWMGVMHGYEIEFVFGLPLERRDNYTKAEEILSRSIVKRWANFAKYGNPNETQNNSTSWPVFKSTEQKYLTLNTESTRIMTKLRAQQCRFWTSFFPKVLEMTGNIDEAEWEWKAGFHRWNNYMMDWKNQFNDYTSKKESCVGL

For orientation: EC50 means the concentration that produces a half-maximal response. The low end stands for greater potency, the high end for weaker potency. For orientation: IC50 means the concentration that inhibits the measured activity by half. High values mean weaker potency, low ones greater potency. Usually CC50 stands for the concentration that lowers cell viability or growth by half. A lower CC50 goes with greater toxicity to the cells. With `Cc1cn([C@H]2C=C[C@@H](COP3(=O)OCc4cccc(-c5cccc(CO)c5O)c4O3)O2)c(=O)[nH]c1=O` (stereo in doubt; 29(Rp)), the EC50 in data set [1] (cem/0) worked out at 500 nM; in data set [3] (ccrf-cem), 700 nM; in data set [6] (cem/0) it was 270 nM. In data set [2], the IC50 was above 50000 nM. Also, in data set [4], the t1/2 worked out at 1.4 h. Besides, the half-maximal cytotoxic concentration (CC50) in data set [5] (ccrf-cem) was 69400 nM.

With `OCc1cccc(-c2cccc(CO)c2O)c1O`, the EC50 in data set [1] (setting [7]) and in data set [6] (setting [8]) was above 150000 nM in each case. The compound also returned a 50% inhibitory concentration (IC50) in data set [2] above 50000 nM. The CC50 in data set [5] (CEM/0 cells) was above 150000 nM.

In turn, `Cc1cn([C@H]2C=C[C@@H](COP(=O)(O)OCc3cccc(-c4cccc5c4OP(=O)(OC[C@@H]4C=C[C@H](n6cc(C)c(=O)[nH]c6=O)O4)OC5)c3O)O2)c(=O)[nH]c1=O` (stereo not given in full) returned an IC50 in data set [2] of 2300 nM. That is a single-digit micromolar value.

As to `Cc1cn([C@H]2C=C[C@@H](CO)O2)c(=O)[nH]c1=O` [STAVUDINE], the figures for the EC50 in data set [1] (setting [7]), in data set [3] (setting [7]) and in data set [6] (setting [8]) were 190 nM, 51000 nM and 250 nM, respectively. Also, in data set [5] (CEM/0 cells), the CC50 came to 105000 nM.

`Cc1cn([C@H]2C=C[C@@H](COP3(=O)OCc4cccc(-c5cccc6c5OC(C)(C)OC6)c4O3)O2)c(=O)[nH]c1=O` (stereo in doubt; 33(Rp)) returned a half-maximal inhibitory concentration (IC50) in data set [2] above 50000 nM. In addition, the 50% effective concentration (EC50) in data set [3] (ccrf-cem) was determined as 550 nM; in data set [6] (cem/0) it was 360 nM. Also, the t1/2 in data set [4] is 21 h. In data set [5] (ccrf-cem), this compound showed a cytotoxic concentration (CC50) of 55300 nM.

A word on the half-life: it is the time in which the quantity being followed falls by half. Read a low half-life as fast loss. Regarding `Cc1cn([C@H]2C=C[C@@H](COP3(=O)OCc4cccc(-c5ccccc5)c4O3)O2)c(=O)[nH]c1=O` (stereo not given in full), the 50% effective concentration (EC50) in data set [1] (setting [7]) was 270 nM; in data set [3] (setting [7]), 280 nM; in data set [6] (setting [8]), 130 nM. In addition, the half-inhibitory concentration (IC50) in data set [2] turned out to be 350 nM. In data set [4], this compound gave a half-life of 5.1 h. Besides, half-maximal cytotoxicity in data set [5] (CEM/0 cells) (CC50) was put at 22000 nM.

With `Cc1cn([C@H]2C=C[C@@H](COP3(=O)OCc4cccc(-c5cccc(CO)c5O)c4O3)O2)c(=O)[nH]c1=O` (stereo in doubt; 29(Sp)), the concentration giving a half-maximal response (EC50) was 400 nM in data set [1] (setting [7]), 1500 nM in data set [3] (ccrf-cem) and 340 nM in data set [6] (setting [8]). For the same compound, the IC50 in data set [2] came to 790 nM. The same compound showed a half-life in data set [4] of 1.1 h. The compound also came in with a 50% cytotoxic concentration (CC50) in data set [5] (CEM/0 cells) of 78700 nM.

As for `Cc1cn([C@H]2C=C[C@@H](COP3(=O)OCc4cccc(-c5cccc(CO)c5O)c4O3)O2)c(=O)[nH]c1=O` (stereo in doubt; 29), the midpoint of inhibition in data set [2], the IC50, lay at 2300 nM. The t1/2 in data set [4] was 1.3 h.

In the case of `Cc1cn([C@H]2C=C[C@@H](COP3(=O)OCc4cccc(-c5cccc6c5OP(=O)(OC[C@@H]5C=C[C@H](n7cc(C)c(=O)[nH]c7=O)O5)OC6)c4O3)O2)c(=O)[nH]c1=O` (stereo in doubt; 6), the concentration giving a half-maximal response (EC50) in data set [1] (setting [7]) amounted to 270 nM; in data set [3] (setting [7]), 2330 nM; in data set [6] (setting [8]) it was 190 nM. The concentration for half-maximal inhibition (IC50) in data set [2] was found to be 40000 nM. Also, half-maximal cytotoxicity in data set [5] (ccrf-cem) (CC50) was put at 27800 nM.

For `Cc1cn([C@H]2C=C[C@@H](COP3(=O)OCc4cccc(-c5cccc6c5OC(C)(C)OC6)c4O3)O2)c(=O)[nH]c1=O` (stereo in doubt; 33(Sp)), the EC50 came to 400 nM in data set [1] (setting [7]), 3000 nM in data set [3] (ccrf-cem) and 500 nM in data set [6] (setting [8]). Moreover, it took 3600 nM to reach half-maximal inhibition in data set [2] (IC50). Besides, the half-life in data set [4] is 14 h. In data set [5] (CEM/0 cells), this compound gave a CC50 of 89300 nM.

With `Cc1cc(CO)c(O)c(-c2cc(C)cc(CO)c2O)c1`, the half-maximal effective concentration (EC50) in data set [1] (setting [7]) and in data set [6] (setting [8]) was above 150000 nM each time. This compound showed a 50% inhibitory concentration (IC50) in data set [2] above 50000 nM. Further, the cytotoxic concentration (CC50) in data set [5] (CEM/0 cells) is above 150000 nM.

Turning to `Cc1cn([C@H]2C=C[C@@H](COP3(=O)OCc4cccc(-c5cccc6c5OP(=O)(OC[C@@H]5C=C[C@H](n7cc(C)c(=O)[nH]c7=O)O5)OC6)c4O3)O2)c(=O)[nH]c1=O` (single isomer, unassigned; diastereomer 1), the EC50 in data set [1] (cem/0) came to 300 nM; in data set [3] (ccrf-cem), 3330 nM; in data set [6] (cem/0), 250 nM. This compound also came in with a 50% inhibitory concentration (IC50) in data set [2] of 14000 nM. In data set [5] (ccrf-cem), half-maximal cytotoxicity (CC50) was put at 107000 nM.

For `Cc1cc2c(c(-c3cc(C)cc4c3OP(=O)(OC[C@@H]3C=C[C@H](n5cc(C)c(=O)[nH]c5=O)O3)OC4)c1)OP(=O)(OC[C@@H]1C=C[C@H](n3cc(C)c(=O)[nH]c3=O)O1)OC2` (stereo not given in full), the half-maximal effective concentration (EC50) in data set [1] (setting [7]) amounted to 410 nM; in data set [3] (setting [7]), 1600 nM; in data set [6] (setting [8]), 370 nM. The compound also had a concentration for half-maximal inhibition (IC50) in data set [2] above 50000 nM. The half-life in data set [4] was 12 h. Also, it took 67100 nM to reach half-maximal cytotoxicity in data set [5] (CEM/0 cells) (CC50).

For the compound `Cc1cn([C@H]2C=C[C@@H](COP3(=O)OCc4cccc(-c5cccc6c5OP(=O)(OC[C@@H]5C=C[C@H](n7cc(C)c(=O)[nH]c7=O)O5)OC6)c4O3)O2)c(=O)[nH]c1=O` (single isomer, unassigned; diastereomer 2), the values for the concentration for a half-maximal effect (EC50) in data set [1] (cem/0), in data set [3] (ccrf-cem) and in data set [6] (cem/0) were 220 nM, 2370 nM and 210 nM, respectively. Besides, the IC50 in data set [2] was above 50000 nM. The midpoint of cytotoxicity in data set [5] (ccrf-cem), the CC50, lay at 90700 nM.

On to `Cc1cn([C@H]2C=C[C@@H](COP3(=O)OCc4cccc(-c5cccc6c5OC(C)(C)OC6)c4O3)O2)c(=O)[nH]c1=O` (stereo in doubt; 33), for which the IC50 in data set [2] came to 4700 nM. Also, the EC50 in data set [3] (ccrf-cem) was 1070 nM; in data set [6] (cem/0) it was 350 nM. The t1/2 in data set [4] turned out to be 16 h. It took 65000 nM to reach half-maximal cytotoxicity in data set [5] (ccrf-cem) (CC50).
